Laboratory results: patent US11214806B2, “Marker, method and kit for observing effect of compound or drug on cells in real time, and use thereof” (priority 2016, dated 2022)
“Also recorded” adds a separate entry of the source.

How the values were obtained:
[1] = system: VirE2 trafficking in N. benthamiana (Nb308A) leaf epidermal cells; assay: Real-time VirE2-GFPcomp trafficking in agroinfiltrated tobacco leaf epidermal cells (split-GFP, confocal microscopy); assay type: cell-based; details: for effect on real-time movement process of protein VirE2-GFP / toxicity as judged from VirE2-GFP movement: drug infiltrated into leaf six hours before observation, FIG. 11; for effect on VirE2 trafficking: infiltrated 6 h before observation, control 0.5% DMSO, FIG. 1b-d
Description: To visualize Agrobacterium-delivered VirE2, agroinfiltration was performed as described previously. Briefly, the bacteria were grown overnight; the cultures were diluted 50 times in MG/L and grown for 6 h. The bacteria were collected and re-suspended in infiltration buffer (10 mM MgCl2, 10 mM MES, pH5.5) to OD600=1.0. The bacterial suspension was infiltrated using a syringe to the underside of fully expended N. benthamiana leaves. The infiltrated plant was placed at 22° C. in a photoperiod of 16 h light/8 h dark. In order to observe a real-time effect of a compound or a drug on cells in real time, the inventor injected and infiltrated the compound or the drug into a leaf injected and infiltrated with A. tumefaciens EHA105virE2::GFP11 cell at an appropriate concentration, and observed with a UPLSAPO×60 N.A. 1.20 water immersion lens under a confocal microscope after six hours.
A PerkinElmer UltraView Vox Spinning Disk system with EM-CCD cameras was used for confocal microscopy. To observe leaf epidermis, agroinfiltrated leaf tissues were detached from N. benthamiana plants and put in 2% low-melting agarose gel on a glass slide with a coverslip. All images were taken in multiple focal planes (Z-stacks), and were processed to show the extended focus image or 3D opacity view by Volocity® 3D Image Analysis Software 6.2.1.
FIG. 1 illustrated Agrobacterium-delivered VirE2 trafficking on a cellular structure and entering the nucleus. A. tumefaciens EHA105virE2::GFP11 cells were infiltrated into transgenic N. benthamiana (Nb308A) leaves expressing both GFP1-10 and DsRed. […] Red, free DsRed; Green, VirE2-GFPcomp. (a) Time-lapse images of VirE2 aggregates trafficking along a linear cellular structure and entering the nucleus. Relative time is shown at the top right. Scale bar represents 20 μm. (b) Effects of chemical treatments on VirE2 trafficking. Chemicals were infiltrated into leaf samples 6 h before observation. Control, 0.5% DMSO. Colc, colchicine […] CytoD, cytochalasin D 20 μM. BFA, brefeldin A 100 μg/mL. Scale bar represents 20 μm. (c) Mean velocities of VirE2 aggregate movement after chemical treatments. Data analyzed with ANOVA and Tukey test, p<0.05. (d) Movement tracking of 20 individual VirE2 aggregates plotted to a common origin for each treatment.
FIG. 4 illustrated effects of ML-7 and myosin-tail overexpression on VirE2 trafficking. (a) Effect of ML-7, a myosin light chain kinase inhibitor, on VirE2 trafficking. A. tumefaciens EHA105virE2::GFP11 cells were infiltrated into transgenic N. benthamiana (Nb308A) leaves expressing both GFP1-10 and DsRed. The leaves were infiltrated with 100 μM ML-7 or 1% DMSO as control 4 h before imaging. […] Red, free DsRed; Green, VirE2-GFPcomp. The movement tracking of 20 individual VirE2 aggregates plotted to a common origin is shown below the figure. Scale bar represents 20 μm. (b) Mean velocity of the VirE2 aggregates after ML-7 treatment. (c) Effects of myosin-tail overexpression on VirE2 trafficking. A. tumefaciens EHA105virE2::GFP11 cells harboring a binary plasmid which encodes a tail fragment of respective myosins downstream of 35S promoter were infiltrated into transgenic N. benthamiana (Nb308A) leaves expressing both GFP1-10 and DsRed. […] Red, free DsRed; Green, VirE2-GFPcomp. The movement tracking of 20 individual VirE2 aggregates plotted to a common origin is shown below the figure. Scale bar represents 20 μm. (d) Mean velocity of VirE2 aggregate movement under overexpression of myosin tails. EV, empty vector control. (e) Western analysis of crude extracts from leaf samples agroinfiltrated with myosin-tail constructs. EV, empty vector control. Myosin tails were HA tagged. GFP1-10 was detected to assess the amount of sample loaded, as shown in the lower panel. […]
FIG. 11 illustrated an effect of a drug on VirE2 movement. A. tumefaciens EHA105virE2::GFP11 cell was injected and infiltrated into a transgenic tobacco line Nb308A constantly expressing a GFP1-10 and a DsRed. […]

[2] = system: Arabidopsis root transformation; assay: Root tumorigenesis assay (Arabidopsis root transformation with tumor inducing strain A348); assay type: cell-based, A. thaliana; details: 10 μM ML-7 in co-cultivation mixture, FIG. 9
Description: Arabidopsis thaliana seeds were surface-sterilized with 0.5% NaClO solution and placed onto solidified ½×MS medium supplemented with 1% sucrose and 0.5 g L^−1 MES, pH 5.8. The plates were then incubated under a 16 hour photoperiod at 25° C. for 10 to 12 days. Roots from individual seedlings were cut into 3-5 mm segments and re-suspended in 1 ml fresh ½×MS medium containing A. tumefaciens cells at a concentration of 5×10^8 cell/ml unless specified otherwise. The mixtures were spread onto a solidified ½×MS plate and subsequently incubated at 25° C. for 2 days. The root segments were aligned onto ½×MS medium plates containing […] cefotaxime and kept at 25° C. for 4 weeks before photographing.
(§1) FIG. 9 illustrated effects of ML-7 treatment on root tumorigenesis assay. Root segments from 10-day old wild type A. thaliana seedlings were infected with a tumor inducing Agrobacterium stain A348. Tumors were photographed three weeks later. (a) Tumors formed with or without ML-7 treatment. ML-7 was added (10 μM) into the col-cultivation mixture and then washed off when the root segments were transferred onto new plates for tumor formation. (b) Tumorigenesis efficiency as determined by percentage of root segments with tumors. (c) Effect of ML-7 on root segment viability. (d) Effect of ML-7 on Agrobacterium viability

root segments = assay: Effect of ML-7 on root segment viability; assay type: cell-based, A. thaliana; details: 10 μM ML-7 for 2 days, in the presence of hormones (auxin and cytokinin); FIG. 9c
Description: (§2) The inventor wants to determine if the VirE2 movement observed during our studies is directly relevant to Agrobacterium-mediated transformation. The present invention tested the effect of a selective myosin light chain kinase inhibitor ML-7 on Arabidopsis root transformation. Root segments were inoculated with a tumor inducing strain A348 in the presence of 10 μM ML-7. […] The present invention tested the toxicity of ML-7 on either the root or Agrobacterium growth at 10 μM ML-7. The root segments were exposed to 10 μM of ML-7 for 2 days, which was the time span for the bacterium-Arabidopsis co-cultivation.
as §1

Agrobacterium = assay: Effect of ML-7 on Agrobacterium viability; assay type: cell-based, A. tumefaciens; details: 10 μM ML-7
Description: as §2, §1

ER = assay: Effects of chemicals on cellular structures: ER marker ER-mCherry; assay type: cell-based, N. benthamiana; details: 100 μg/mL BFA at 6 h before imaging; tobacco leaves
Description: (§3) FIG. 5 illustrated effects of chemicals on respective cellular structures. Wild type N. benthamiana leaves were agroinfiltrated with binary plasmids encoding different fluorescent markers. The epidermal cells were examined at 2 d post agroinfiltration under confocal microscope with Olympus UPLSAPO 60×N.A. 1.20 water immersion objective. Upper panels a-c: leaf samples expressing subcellular markers. Lower panels d-f: leaf samples expressing subcellular markers were treated with chemicals. (a) RFP-MBD. MBD, Microtubule Binding Domain. (b) ER-mCherry. (c) tdTomato-ABD2. ABD, Actin Binding Domain. (d) RFP-MBD. Leaf samples were treated with 500 μM colchicine at 6 h before imaging. (e) ER-mCherry. Leaf samples were treated with 100 μg/mL BFA at 6 h before imaging. (f) tdTomato-ABD. Leaf samples were treated with 20 μM cytochalasin D at 6 h before imaging. Scale bar represents 20 μm.

microtubule = assay: Effects of chemicals on cellular structures: microtubule marker RFP-MBD; assay type: cell-based, N. benthamiana; details: 500 μM colchicine at 6 h before imaging; tobacco leaves
Description: as §3

actin structures = assay: Effects of chemicals on cellular structures: actin marker tdTomato-ABD2; assay type: cell-based, N. benthamiana; details: 20 μM cytochalasin D at 6 h before imaging; tobacco leaves
Description: as §3

[3] = colchicine 500 μM, cytochalasin D 20 μM, brefeldin A 100 μg/mL

Clc1ccc(COC(Cn2ccnc2)c2ccc(Cl)cc2Cl)cc1 (centres unmarked) [Econazole]
effect on real-time movement process of protein VirE2-GFP [1]: significantly affects
toxicity as judged from VirE2-GFP movement [1]: highly toxic

CC(=O)N1CCN(c2ccc(OCC3COC(Cn4ccnc4)(c4ccc(Cl)cc4Cl)O3)cc2)CC1 (centres unmarked) [Ketoconazole]
effect on real-time movement process of protein VirE2-GFP [1]: does not affect
toxicity as judged from VirE2-GFP movement [1]: less toxic

O=S(=O)(c1cccc2c(I)cccc12)N1CCCNCC1 [ML-7]
transformation efficiency (tumorigenesis) [2]: significantly reduced
growth of root segments (root segments): did not affect
effect on VirE2 movement ([1]; 100 μM ML-7 infiltrated 4 h before imaging, control 1% DMSO, FIG. 4): obviously stops
decrease of average rate of the movement of the VirE2 compared with control group ([1]; 100 μM ML-7 infiltrated 4 h before imaging, control 1% DMSO, FIG. 4b): 95%
Agrobacterium growth (Agrobacterium): did not inhibit

C[C@H]1CCC/C=C/[C@@H]2C[C@H](O)C[C@H]2[C@H](O)/C=C/C(=O)O1 [brefeldin A]
effect on ER structure (ER): disrupted
effect on VirE2 trafficking [1, 3]: severely affected

COc1cc2c(c(OC)c1OC)-c1ccc(OC)c(=O)cc1[C@@H](NC(C)=O)CC2 [colchicine]
effect on microtubule structure (microtubule): disrupted
average velocity of VirE2 movement, relative to the control ([1]; colchicine 500 μM, cytochalasin D 20 μM, brefeldin A 100 μg/mL, 6 h before observation, over 20 events per treatment, FIG. 1c): over 60%
effect on VirE2 trafficking [1, 3]: minor effect; also recorded: did not affect the VirE2 trafficking significantly

C=C1[C@@H](C)[C@H]2[C@H](Cc3ccccc3)NC(=O)[C@]23[C@H](OC(C)=O)/C=C/[C@@](C)(O)C(=O)[C@@H](C)C/C=C/[C@H]3[C@@H]1O [cytochalasin D]
effect on actin structure (actin structures): disrupted
effect on VirE2 trafficking [1, 3]: severely affected
effect on VirE2 trafficking ([1]; colchicine 500 μM, cytochalasin D 20 μM, brefeldin A 100 μg/mL, listed as CytoD): stop the VirE2 movement
